Test results from ChEMBL document CHEMBL4190175 (Medchemcomm, 2016).
≈ marks a conversion by molar mass, not a printed value.

Tests used:
[1] = Ratio of permeability from basolateral to apical side over apical to basolateral side in RRCK cells expressing MDR1; format: ADME, cell-based, Canis lupus familiaris; settings: dog, mdckii-le
[2] = target: Cytochrome P450 2D6 (Homo sapiens, UniProt P10635); assay: Inhibition of CYP2D6 (unknown origin); format: ADME
[3] = tested on: Hepatocyte; assay: Stability in human hepatocytes; format: ADME, cell-based
[4] = Clearance in rat; format: ADME, organism-based; settings: in vivo
[5] = Stability in dog plasma; format: ADME, cell-free, Canis lupus familiaris; settings: read-out: Stability
[6] = Stability in rat liver microsomes; format: ADME, microsome; settings: read-out: Stability
[7] = Lipophilicity, log D of the compound; format: physicochemical; settings: octanol/water
[8] = target: Transient receptor potential cation channel subfamily M member 8 (Homo sapiens, UniProt Q7Z2W7); assay: Inhibition of human TRPM8
[9] = tested on: Hepatocyte; assay: Stability in rat hepatocytes; format: ADME, cell-based
[10] = target: T1, Transient receptor potential cation channel subfamily A member 1 (Homo sapiens, UniProt O75762); assay: Antagonist activity at full length human TRPA1 at holding potential of 15 mV measured after 1 min by PatchXpress electrophysiology assay
[11] = Stability in rat plasma; format: ADME, cell-free; settings: read-out: Stability
[12] = target: T1, Transient receptor potential cation channel subfamily A member 1; assay: Antagonist activity at human TRPA1 oS5 chimera containing (870 to 896 residues) expressed in 293-T-REx cells at holding potential of 15 mV measured after 1 min by PatchXpress electrophysiology assay; format: cell-based
[13] = Fraction unbound in rat plasma; format: ADME, cell-free
[14] = target: T2, Voltage-gated inwardly rectifying potassium channel KCNH2 (Homo sapiens, UniProt Q12809); assay: Inhibition of human ERG
[15] = target: Transient receptor potential cation channel subfamily A member 1 (Rattus norvegicus, UniProt Q6RI86); assay: Antagonist activity at rat TRPA1 by electrophysiology assay
[16] = Antagonist activity at full length opossum TRPA1 at holding potential of 15 mV measured after 1 min by PatchXpress electrophysiology assay; design: species or system Monodelphis domestica
[17] = Fraction unbound in human plasma; format: ADME, cell-free
[18] = Dissociation constant, pKa of the compound; format: physicochemical
[19] = Antagonist activity at opossum TRPA1 hS5 chimera containing (867 to 983 residues) expressed in 293-T-REx cells at holding potential of 15 mV measured after 1 min by PatchXpress electrophysiology assay; format: cell-based; settings: Monodelphis domestica, 293Trex
[20] = target: Sodium channel protein type 5 subunit alpha (Homo sapiens, UniProt Q14524); assay: Inhibition of Nav1.5 (unknown origin)
[21] = target: T1, Transient receptor potential cation channel subfamily A member 1; assay: Antagonist activity at human TRPA1 by electrophysiology assay
[22] = Fraction unbound in dog plasma; format: ADME, cell-free, Canis lupus familiaris
[23] = tested on: Salmonella typhimurium; assay: Genotoxicity in Salmonella typhimurium by Ames test; format: toxicity, organism-based; settings: salmonella enterica subsp. enterica serovar typhimurium
[24] = Inhibition of sodium channel site 2 (unknown origin); design: species or system Homo sapiens
[25] = target: Cytochrome P450 2C19 (Homo sapiens, UniProt P33261); assay: Inhibition of CYP2C19 (unknown origin); format: ADME
[26] = target: T2, Voltage-gated inwardly rectifying potassium channel KCNH2; assay: Inhibition of dofetilide binding to human ERG
[27] = Inhibition of GABA-A (unknown origin); design: species or system Homo sapiens
[28] = Antagonist activity at pig TRPA1 by electrophysiology assay; design: species or system Sus scrofa
[29] = Drug uptake in Sprague-Dawley rat skin epidermal layer at 0.68 mg applied topically measured after 24 hrs; format: ADME, tissue-based, Skin epidermis; settings: topical or ocular, read-out: Drug uptake
[30] = target: T3, Cytochrome P450 1A2 (Homo sapiens, UniProt P05177); assay: Inhibition of CYP1A2 (unknown origin); format: ADME
T3 sequence (P05177 whole entry): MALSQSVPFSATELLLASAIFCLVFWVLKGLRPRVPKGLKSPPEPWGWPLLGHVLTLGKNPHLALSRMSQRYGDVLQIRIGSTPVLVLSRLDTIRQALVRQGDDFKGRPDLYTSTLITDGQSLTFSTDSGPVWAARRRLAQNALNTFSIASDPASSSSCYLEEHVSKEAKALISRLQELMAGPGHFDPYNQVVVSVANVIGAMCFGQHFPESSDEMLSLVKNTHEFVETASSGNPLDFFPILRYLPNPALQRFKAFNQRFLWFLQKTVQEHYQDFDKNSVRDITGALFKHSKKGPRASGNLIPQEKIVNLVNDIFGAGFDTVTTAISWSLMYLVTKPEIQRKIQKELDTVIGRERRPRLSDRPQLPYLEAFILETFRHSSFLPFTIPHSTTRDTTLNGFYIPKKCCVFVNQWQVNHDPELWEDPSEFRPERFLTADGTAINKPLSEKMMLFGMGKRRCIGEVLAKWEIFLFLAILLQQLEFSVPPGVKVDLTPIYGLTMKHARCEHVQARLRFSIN

[31] = target: T4, Cytochrome P450 2C8 (Homo sapiens, UniProt P10632); assay: Inhibition of CYP2C8 (unknown origin); format: ADME
T4 sequence (P10632 whole entry): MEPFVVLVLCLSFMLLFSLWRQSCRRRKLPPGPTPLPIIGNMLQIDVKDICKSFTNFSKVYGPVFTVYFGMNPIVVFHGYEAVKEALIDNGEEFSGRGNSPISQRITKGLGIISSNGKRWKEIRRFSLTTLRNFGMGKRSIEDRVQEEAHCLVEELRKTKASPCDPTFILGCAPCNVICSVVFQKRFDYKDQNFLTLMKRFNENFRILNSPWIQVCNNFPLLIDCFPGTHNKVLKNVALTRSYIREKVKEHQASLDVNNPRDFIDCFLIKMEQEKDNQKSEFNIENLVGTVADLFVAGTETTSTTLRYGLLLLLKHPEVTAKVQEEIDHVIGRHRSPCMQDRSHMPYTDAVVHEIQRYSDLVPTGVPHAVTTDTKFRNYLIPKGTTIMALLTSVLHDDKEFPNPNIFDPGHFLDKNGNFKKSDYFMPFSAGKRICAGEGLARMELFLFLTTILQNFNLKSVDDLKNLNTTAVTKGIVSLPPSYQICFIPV

[32] = Permeability in Sprague-Dawley rat skin at 0.68 mg applied topically measured after 24 hrs; format: ADME, tissue-based, Zone of skin; settings: in vivo, topical_or_ocular
[33] = target: Transient receptor potential cation channel subfamily V member 1 (Homo sapiens, UniProt Q8NER1); assay: Inhibition of human TRPV1
[34] = Drug uptake in Sprague-Dawley rat skin dermal layer at 0.68 mg applied topically measured after 24 hrs; format: ADME, tissue-based, Dermis; settings: topical or ocular, read-out: Drug uptake
[35] = Kinetic solubility of the compound at pH 6.5; format: physicochemical; settings: buffer, read-out: Kinetic_solubility
[36] = Passive permeability of the compound in RRCK cells; format: ADME, cell-based, Canis lupus familiaris, MDCKII-LE; settings: dog, MDCK; read-out: permeability
[37] = target: Transient receptor potential cation channel subfamily A member 1 (Mus musculus, UniProt Q8BLA8); assay: Antagonist activity at mouse TRPA1 by electrophysiology assay
[38] = Thermodynamic solubility of the compound; format: physicochemical; settings: read-out: Therm_solubility
[39] = Volume of distribution at steady state in rat; format: ADME, organism-based; settings: in vivo, read-out: Vdss
[40] = Stability in human liver microsomes assessed as metabolic turnover number at 10 uM after 15 mins by LC-MS/UV analysis; format: ADME, microsome; settings: read-out: Stability
[41] = target: Potassium voltage-gated channel subfamily A member 5 (Homo sapiens) (UniProt P22460); assay: Inhibition of Kv1.5 (unknown origin)
Sequence of Potassium voltage-gated channel subfamily A member 5 (Homo sapiens) (P22460 whole entry): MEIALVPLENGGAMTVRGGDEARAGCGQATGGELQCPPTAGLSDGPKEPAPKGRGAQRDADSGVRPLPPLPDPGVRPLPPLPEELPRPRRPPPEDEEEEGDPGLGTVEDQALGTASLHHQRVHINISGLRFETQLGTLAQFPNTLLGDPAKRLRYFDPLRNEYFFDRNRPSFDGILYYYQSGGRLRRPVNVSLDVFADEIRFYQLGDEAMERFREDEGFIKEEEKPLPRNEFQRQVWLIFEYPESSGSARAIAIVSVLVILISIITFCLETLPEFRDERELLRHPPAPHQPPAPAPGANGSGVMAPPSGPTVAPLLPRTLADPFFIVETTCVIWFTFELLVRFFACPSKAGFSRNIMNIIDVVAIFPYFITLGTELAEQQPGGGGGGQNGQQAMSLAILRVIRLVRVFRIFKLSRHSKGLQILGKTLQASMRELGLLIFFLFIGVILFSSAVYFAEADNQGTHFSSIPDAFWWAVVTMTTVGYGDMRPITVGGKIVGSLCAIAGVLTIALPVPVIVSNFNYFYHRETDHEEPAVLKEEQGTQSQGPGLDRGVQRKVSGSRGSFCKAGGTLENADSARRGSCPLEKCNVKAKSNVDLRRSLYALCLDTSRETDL

T2 sequence (Q12809 whole entry): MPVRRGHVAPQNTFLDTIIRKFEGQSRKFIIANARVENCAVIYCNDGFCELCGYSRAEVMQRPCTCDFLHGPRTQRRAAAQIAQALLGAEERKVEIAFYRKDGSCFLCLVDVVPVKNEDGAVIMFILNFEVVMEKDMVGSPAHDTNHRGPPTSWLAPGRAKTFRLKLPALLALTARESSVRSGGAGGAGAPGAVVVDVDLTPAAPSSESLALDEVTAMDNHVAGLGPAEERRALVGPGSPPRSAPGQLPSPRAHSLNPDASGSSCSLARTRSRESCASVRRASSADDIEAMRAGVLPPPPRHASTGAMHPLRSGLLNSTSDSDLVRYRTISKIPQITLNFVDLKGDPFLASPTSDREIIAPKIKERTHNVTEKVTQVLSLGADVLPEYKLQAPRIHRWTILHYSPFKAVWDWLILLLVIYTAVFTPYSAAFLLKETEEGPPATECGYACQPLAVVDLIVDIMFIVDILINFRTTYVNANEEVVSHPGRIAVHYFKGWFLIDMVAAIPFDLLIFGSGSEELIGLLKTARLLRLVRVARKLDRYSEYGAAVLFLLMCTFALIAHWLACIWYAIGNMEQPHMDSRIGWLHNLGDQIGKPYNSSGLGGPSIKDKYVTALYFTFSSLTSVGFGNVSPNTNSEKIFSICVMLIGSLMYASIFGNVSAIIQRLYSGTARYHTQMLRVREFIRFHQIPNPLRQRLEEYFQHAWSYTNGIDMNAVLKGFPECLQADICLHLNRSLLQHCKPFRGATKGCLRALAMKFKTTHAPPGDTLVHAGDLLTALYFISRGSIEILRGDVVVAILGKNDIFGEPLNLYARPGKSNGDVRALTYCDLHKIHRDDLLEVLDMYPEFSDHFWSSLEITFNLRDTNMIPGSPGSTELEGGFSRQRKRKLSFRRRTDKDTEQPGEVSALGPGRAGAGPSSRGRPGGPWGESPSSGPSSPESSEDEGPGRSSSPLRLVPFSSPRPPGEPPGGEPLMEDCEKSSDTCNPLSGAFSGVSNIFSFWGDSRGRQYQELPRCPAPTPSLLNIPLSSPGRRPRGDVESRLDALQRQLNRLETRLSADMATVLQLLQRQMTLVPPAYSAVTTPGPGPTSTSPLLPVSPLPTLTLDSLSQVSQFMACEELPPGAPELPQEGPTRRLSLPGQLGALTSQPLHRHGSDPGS
T1 sequence (O75762 whole entry): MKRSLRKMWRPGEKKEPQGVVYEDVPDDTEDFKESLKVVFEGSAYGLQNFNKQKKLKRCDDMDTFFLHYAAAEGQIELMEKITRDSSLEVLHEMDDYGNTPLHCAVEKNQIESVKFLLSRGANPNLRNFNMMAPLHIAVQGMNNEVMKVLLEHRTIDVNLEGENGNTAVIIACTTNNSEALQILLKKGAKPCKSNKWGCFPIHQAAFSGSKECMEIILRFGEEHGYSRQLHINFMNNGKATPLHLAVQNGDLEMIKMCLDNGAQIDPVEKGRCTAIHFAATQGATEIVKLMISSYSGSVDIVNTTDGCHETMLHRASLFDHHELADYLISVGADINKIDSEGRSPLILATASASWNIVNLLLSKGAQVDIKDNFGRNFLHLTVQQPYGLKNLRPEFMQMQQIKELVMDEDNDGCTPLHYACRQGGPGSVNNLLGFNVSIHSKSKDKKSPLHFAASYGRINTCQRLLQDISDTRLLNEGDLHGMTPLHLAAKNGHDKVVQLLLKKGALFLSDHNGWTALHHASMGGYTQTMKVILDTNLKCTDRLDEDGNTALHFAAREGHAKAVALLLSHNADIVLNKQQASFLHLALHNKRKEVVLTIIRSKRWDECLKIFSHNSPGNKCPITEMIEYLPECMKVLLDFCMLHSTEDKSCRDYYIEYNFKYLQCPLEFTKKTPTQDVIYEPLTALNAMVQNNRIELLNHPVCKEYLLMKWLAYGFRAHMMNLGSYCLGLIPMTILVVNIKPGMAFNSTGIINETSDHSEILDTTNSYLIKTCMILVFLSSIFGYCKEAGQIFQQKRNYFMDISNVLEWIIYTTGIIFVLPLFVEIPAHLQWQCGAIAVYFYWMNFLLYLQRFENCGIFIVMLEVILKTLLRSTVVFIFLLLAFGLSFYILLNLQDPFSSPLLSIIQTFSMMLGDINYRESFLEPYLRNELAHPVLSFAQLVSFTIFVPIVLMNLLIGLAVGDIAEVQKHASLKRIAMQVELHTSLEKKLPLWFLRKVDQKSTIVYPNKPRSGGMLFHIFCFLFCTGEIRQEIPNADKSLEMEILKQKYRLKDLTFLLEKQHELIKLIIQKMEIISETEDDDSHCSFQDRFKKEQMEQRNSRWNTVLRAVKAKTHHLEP
Sequence of Cytochrome P450 2D6 (P10635 whole entry): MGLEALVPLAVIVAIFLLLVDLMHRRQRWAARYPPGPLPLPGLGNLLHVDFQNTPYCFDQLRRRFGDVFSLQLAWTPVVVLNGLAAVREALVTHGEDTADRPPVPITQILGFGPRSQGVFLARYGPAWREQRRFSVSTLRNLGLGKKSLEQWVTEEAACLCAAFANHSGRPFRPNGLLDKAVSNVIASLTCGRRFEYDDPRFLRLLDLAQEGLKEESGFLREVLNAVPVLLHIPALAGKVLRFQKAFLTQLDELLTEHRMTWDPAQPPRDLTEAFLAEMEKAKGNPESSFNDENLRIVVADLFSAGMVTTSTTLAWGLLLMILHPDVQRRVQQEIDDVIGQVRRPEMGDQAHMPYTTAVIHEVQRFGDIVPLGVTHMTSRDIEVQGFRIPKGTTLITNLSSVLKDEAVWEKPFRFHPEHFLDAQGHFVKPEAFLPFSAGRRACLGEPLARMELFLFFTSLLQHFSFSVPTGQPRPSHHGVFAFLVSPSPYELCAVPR
Sequence of Transient receptor potential cation channel subfamily V member 1 (Q8NER1 whole entry): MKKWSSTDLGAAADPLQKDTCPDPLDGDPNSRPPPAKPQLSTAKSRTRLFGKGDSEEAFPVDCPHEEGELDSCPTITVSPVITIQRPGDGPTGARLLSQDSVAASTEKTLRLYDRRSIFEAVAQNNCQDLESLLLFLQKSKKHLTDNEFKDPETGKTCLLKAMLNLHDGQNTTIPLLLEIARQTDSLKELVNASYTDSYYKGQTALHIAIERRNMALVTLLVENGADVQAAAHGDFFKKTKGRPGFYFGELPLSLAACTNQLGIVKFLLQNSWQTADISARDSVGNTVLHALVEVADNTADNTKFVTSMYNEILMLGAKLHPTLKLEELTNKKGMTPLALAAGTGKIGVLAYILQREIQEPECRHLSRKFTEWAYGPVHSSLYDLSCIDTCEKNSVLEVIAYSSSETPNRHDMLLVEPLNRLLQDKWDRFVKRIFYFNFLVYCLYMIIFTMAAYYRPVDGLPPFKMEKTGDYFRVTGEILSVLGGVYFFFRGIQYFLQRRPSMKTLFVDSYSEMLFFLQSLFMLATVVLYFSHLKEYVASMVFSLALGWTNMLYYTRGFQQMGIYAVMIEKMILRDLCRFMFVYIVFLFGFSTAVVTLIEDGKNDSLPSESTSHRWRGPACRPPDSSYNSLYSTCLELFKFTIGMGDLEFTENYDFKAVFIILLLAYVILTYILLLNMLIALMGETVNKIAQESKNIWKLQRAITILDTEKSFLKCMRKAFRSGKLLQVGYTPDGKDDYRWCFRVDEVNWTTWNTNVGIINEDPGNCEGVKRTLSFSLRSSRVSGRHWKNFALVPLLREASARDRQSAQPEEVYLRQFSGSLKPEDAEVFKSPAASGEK
Sequence of Cytochrome P450 2C19 (P33261 whole entry): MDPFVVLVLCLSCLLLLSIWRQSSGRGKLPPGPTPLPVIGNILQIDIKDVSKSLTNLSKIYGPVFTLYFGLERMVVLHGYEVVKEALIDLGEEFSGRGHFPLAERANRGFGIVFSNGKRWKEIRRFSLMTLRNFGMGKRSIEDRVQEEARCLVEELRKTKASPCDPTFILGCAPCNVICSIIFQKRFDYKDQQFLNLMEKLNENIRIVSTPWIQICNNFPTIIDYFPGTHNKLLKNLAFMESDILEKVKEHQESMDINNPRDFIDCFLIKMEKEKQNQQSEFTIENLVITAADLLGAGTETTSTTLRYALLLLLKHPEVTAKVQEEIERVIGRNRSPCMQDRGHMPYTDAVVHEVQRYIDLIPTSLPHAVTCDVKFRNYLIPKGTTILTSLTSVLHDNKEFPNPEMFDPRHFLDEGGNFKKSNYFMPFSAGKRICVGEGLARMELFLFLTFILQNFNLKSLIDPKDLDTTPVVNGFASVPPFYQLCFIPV

In the case of `O=C(NC[C@@H](Cc1ccccc1)N1CCC(O)(C(F)(F)F)CC1)C1(c2ccc(Cl)cc2)CCCC1`, the Ratio [1] is reported as 11, the IC50 [2] is reported as 450 nM and the Stability [3] is reported as 38 µL/min/mg. For the same molecule, the clearance [4] was 42 mL/min/kg, the half-life [5] was > 6 h and the microsomal CLint [6] was 524 µL/min/mg. For the same molecule, the logD [7] was 4.7 to 5, the IC50 [8] was > 3000 nM and the Stability [9] was 30 µL/min/mg. The IC50 [10] was 0.72 to 8 nM, the half-life [11] was > 6 h and the IC50 [12] was 1580 nM. The fraction unbound [13] was 0.00057, the IC50 [14] was > 3000 nM and the IC50 [15] was 3 nM. For the same molecule, the IC50 [16] was ≥ 3000 nM, the fraction unbound [17] was 0.0011 and the pKa [18] was 5.9. The IC50 [19] was 20 nM, the INH [20] was > 3000 nM and the IC50 [21] was 0.7 nM. For the same molecule, the fraction unbound [22] was 0.0008, the Activity [23] was “Non-Toxic” and the IC50 [24] was 730 nM. The IC50 [25] was 3150 nM, the Ki [26] was 25700 nM and the IC50 [27] was 2300 nM. The IC50 [28] was 65 nM, the concentration at 24 h [29] was 3.13e+06 ng/g and the IC50 [30] was > 30000 nM. The IC50 [31] was 11800 nM, the permeability [32] was 0.1 ×10⁻⁵ cm/hr and the IC50 [33] was > 3000 nM. It also gave a concentration at 24 h [34] of 640000 ng/g, a solubility kinetic [35] of 12 µM (≈ 6.11 µg/mL) and a Papp [36] of 1 ×10⁻⁶ cm/s. The IC50 [37] was 4 nM, the solubility thermodynamic [38] was 0.6 µg/mL (≈ 1.18 µM) and the Vd [39] was 3.99 L/kg. For the same molecule, the microsomal CLint at 10 µM [40] was 246 µL/min/mg and the INH [41] was > 3000 nM.
